Laboratory results published in publication PMC8564858, “Flavonoid-based inhibitors of the Phi-class glutathione transferase from black-grass to combat multiple herbicide resistance” (Organic & Biomolecular Chemistry, 2021).

Tests used:
[1] = tested on: AmGSTF1; assay: CDNB assay: inhibition of AmGSTF1-catalysed glutathionylation of CDNB; format: biochemical, Alopecurus myosuroides; conditions: three replicate measurements
[2] = tested on: AmGSTF1; assay: Thermal shift assay; format: binding, Alopecurus myosuroides; conditions: difference in melting temperature compared to no ligand
[3] = tested on: wildtype AmGSTF1; format: biochemical, Alopecurus myosuroides; conditions: 100 µM, 60 min at 20 °C, diluted 1:100, activity towards CDNB
[4] = tested on: AmGSTF1; assay: Isothermal titration calorimetry; format: binding, Alopecurus myosuroides
Experimental: Coot and reciprocal space refinement using Refmac. Further experimental detail is summarised in
Molecular docking was performed using the GOLD package with CHEMPLP as the target fitness function
12. The structure of the AmGSTF1 in the tetragonal unit cell with both loops in their closed conformation
was used as a starting model for docking. The ligand (GS-NBF) was removed from the binding site. The
search space was defined by the position of the ligand in the cavity with a margin of 10 and 15 Å,
respectively. The ligands were built with Avogadro [XX]. In each case, the starting geometry minimized
using the MMFF94 forcefield [xx]. Each ligand was docked with 30 independent genetic algorithm using
the diverse solution settings in order to explore a maximum parameter space.
Isothermal Titration Calorimetry
AmGSTF1 was dialysed into HEPES buffer (pH 7.6) overnight at 3 °C and the concentration adjusted to
10 µM in a volume of 3 mL. The activity of the enzyme was calculated prior to use according to the
standard CDNB biochemical assay. A solution of the desired ligand (≥ 10 x protein concentration, 200
µL) was prepared in the same HEPES buffer as above. All samples were degassed for 5 minutes prior to
use using a thermovac at 24 °C. AmGSTF1 was incubated in the cell and the ligand in the syringe, […]
experiment run to completion or until no more titrant was available. The data obtained was analysed […]

[5] = tested on: HS black-grass (Rothamsted); assay: Petri-dish seedling assay with pendimethalin; format: in vivo, Alopecurus myosuroides; conditions: 5 ppm pendimethalin alone
[6] = tested on: MHR black-grass (Peldon); assay: Petri-dish seedling assay with pendimethalin; format: in vivo, Alopecurus myosuroides; conditions: Peldon-MHR; 5 ppm pendimethalin alone
[7] = tested on: AmGSTF1; assay: Ligand fishing with strep-tagged AmGSTF1 immobilised on StrepTactin column; format: binding, Alopecurus myosuroides; conditions: ligand cocktail, each at 100 µM
[8] = tested on: MHR in black-grass plants; assay: Preliminary spray trial with pinoxaden; format: in vivo, Alopecurus myosuroides; conditions: black-grass plants exposed to the herbicide pinoxaden
[9] = tested on: wheat; assay: Preliminary spray trial, companion crop phytotoxicity; format: in vivo
[10] = Aqueous solubility (qualitative); format: physicochemical

Row | SMILES | CDNB Assay % Inhibition ([1]; 10 µM compound) [%] | CDNB Assay % Inhibition ([1]; 100 µM compound) [%] | Thermal Shift Assay ∆Tm ([2]; 1 µM) | Thermal Shift Assay ∆Tm ([2]; 10 µM) | Thermal Shift Assay ∆Tm ([2]; 100 µM) | also measured
1 | COc1cc(OC)c2c(=O)cc(-c3ccc(S(C)(=O)=O)cc3)oc2c1 [18l] | 14 | 35 | 0.13 | 0.20 | 0.30 | –
2 | COc1cc(OC)c2c(=O)cc(-c3ccncc3)oc2c1 [18m] | 10 | 50 | 0.23 | 0.27 | 0.23 | –
3 | COc1cc(OC)c2c(=O)cc(-c3cnnc(C)c3)oc2c1 [18n] | 8 | 64 | -0.07 | -0.13 | -0.33 | –
4 | NC(CCC(=O)NC(CSc1ccc([N+](=O)[O-])c2nonc12)C(=O)NCC(=O)O)C(=O)O (stereo not drawn) [NBD-SG] | – | – | – | – | – | Inhibition vs. DMSO control [3]: 43%; Mean specific activity ([3]; mean ± SD, n = 3): 11.2 ± 1.1 nmol s-1 mg-1 protein; Binding to AmGSTF1 by ITC [4]: binding to AmGSTF1 confirmed
5 | CCC(CC)Nc1c([N+](=O)[O-])cc(C)c(C)c1[N+](=O)[O-] [Pendimethalin, pendimethalin, reference compound] | – | – | – | – | – | Percentage of normal shoot 14 d after treatment [5]: 52%; Percentage of normal shoot 14 d after treatment [6]: 82%
6 | O=c1cc(-c2ccc(O)cc2)oc2cc(O)cc(O)c12 [compound 1, apigenin] | 71 | 87 | – | – | – | Binding/retention by immobilised AmGSTF1 [7]: selectively retained and bound; Synergistic effect counteracting MHR [8]: clear synergistic effect; Phytotoxic effect in companion crop [9]: no adverse phytotoxic effect
7 | O=c1cc(-c2ccccc2)oc2cc(O)cc(O)c12 [compound 2, 5,7-dihydroxyflavone, reference compound] | 47 | 96 | 0.1 | 0.1 | 0.2 | –
8 | O=c1c(O)c(-c2ccc(O)c(O)c2)oc2cc(O)cc(O)c12 [compound 3, quercetin, reference compound] | 44 | 94 | – | – | – | Solubility in aqueous solutions (in words) [10]: high solubility
9 | O=c1cc(-c2ccccc2)oc2ccc(O)cc12 [compound 4, reference compound] | – | 61 | 0.4 | 0.0 | -0.2 | –
10 | O=c1cc(-c2ccccc2)oc2ccccc12 [compound 7, reference compound] | – | 14 | 0.3 | 0.0 | -0.2 | –
11 | COc1cc(OC)c2c(=O)cc(-c3nnc(C)o3)oc2c1 [compound 19] | 8 | 53 | -0.10 | -0.17 | -0.27 | –
12 | COc1cc(OC)c2c(=O)cc(-c3ncco3)oc2c1 [compound 20] | 11 | 64 | -0.10 | -0.17 | -0.23 | –
13 | COc1cc(OC)c2c(=O)cc(-c3nnn[nH]3)oc2c1 [compound 22] | 13 | 53 | -0.23 | -0.27 | -0.43 | –
14 | COc1cc(OC)c2c(=O)cc(-c3nccs3)oc2c1 [compound 23] | 23 | 83 | -0.40 | -0.47 | -0.50 | Solubility in aqueous solutions (in words) [10]: increased solubility
15 | COc1cc(OC)c2c(=O)cc(-c3ccn[nH]3)oc2c1 [compound 24] | 6 | 59 | -0.30 | -0.07 | -0.03 | –
16 | COc1cc(OC)c2c(=O)cc(-c3ccnn3C)oc2c1 [compound 25] | 9 | 58 | 0 | -0.03 | -0.10 | –
17 | COc1cc(OC)c2c(=O)cc(-c3ccn(C)n3)oc2c1 [compound 26] | 19 | 64 | 0 | -0.03 | -0.17 | –
18 | COc1cc(OC(C)C(=O)O)c2c(=O)cc(-c3ccccc3)oc2c1 (stereo not drawn) [compound 41] | 14 | – | 0.20 | 0.20 | 1.10 | –
19 | CCCCCC(Oc1cc(OC)cc2oc(-c3ccccc3)cc(=O)c12)C(=O)O (stereo not drawn) [compound 42] | 69 | – | 0.17 | 0.43 | 2.33 | CDNB Assay % Inhibition ([1]; 1 µM compound): 4%
20 | CCCCCCCC(Oc1cc(OC)cc2oc(-c3ccccc3)cc(=O)c12)C(=O)O (stereo not drawn) [compound 43] | 86 | – | 0.27 | 0.70 | 2.93 | CDNB Assay % Inhibition ([1]; 1 µM compound): 40%
21 | CCCCCCCCCC(Oc1cc(OC)cc2oc(-c3ccccc3)cc(=O)c12)C(=O)O (stereo not drawn) [compound 44] | 97 | – | 0.40 | 0.70 | 0.90 | CDNB Assay % Inhibition ([1]; 1 µM compound): 58%
22 | CCCCCCCCCCC(Oc1cc(OC)cc2oc(-c3ccccc3)cc(=O)c12)C(=O)O (stereo not drawn) [compound 45] | 99 | 100 | 0.30 | 0.23 | 1.17 | CDNB Assay % Inhibition ([1]; 1 µM compound): 71%
23 | CCCCCCCCCCCCC(Oc1cc(OC)cc2oc(-c3ccccc3)cc(=O)c12)C(=O)O (stereo not drawn) [compound 46] | 90 | 100 | 0.20 | 0.73 | 1.43 | CDNB Assay % Inhibition ([1]; 1 µM compound): 75%
24 | Br.COC(=O)C(CCCCN)Oc1cc(OC)cc2oc(-c3ccccc3)cc(=O)c12 (stereo not drawn) [compound 51] | 25 | – | 0.20 | 0.43 | 0.57 | –
25 | CCCCC(=O)NCCCCC(Oc1cc(OC)cc2oc(-c3ccccc3)cc(=O)c12)C(=O)O (stereo not drawn) [compound 52] | 39 | – | 0.13 | 0.30 | 1.10 | CDNB Assay % Inhibition ([1]; 1 µM compound): 6%
